Molecular target: T1, recombinant human VDR (hVDR, vitamin D receptor) (Homo sapiens, UniProt P11473)
T1 sequence (P11473 1-427): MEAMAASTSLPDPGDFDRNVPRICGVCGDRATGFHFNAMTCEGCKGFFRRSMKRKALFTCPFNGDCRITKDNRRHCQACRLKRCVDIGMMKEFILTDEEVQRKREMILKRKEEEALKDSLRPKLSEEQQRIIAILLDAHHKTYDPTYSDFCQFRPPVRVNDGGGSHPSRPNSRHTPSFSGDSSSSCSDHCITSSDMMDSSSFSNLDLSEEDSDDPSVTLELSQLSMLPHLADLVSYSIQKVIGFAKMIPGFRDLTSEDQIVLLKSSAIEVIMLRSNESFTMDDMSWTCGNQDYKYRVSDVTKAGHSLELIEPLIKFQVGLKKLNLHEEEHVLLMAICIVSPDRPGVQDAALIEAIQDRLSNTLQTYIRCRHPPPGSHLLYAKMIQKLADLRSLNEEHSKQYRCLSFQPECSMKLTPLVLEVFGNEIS
Test: fluorescence polarization competition assay (PolarScreen)
Format: binding
Settings: read-out: 6
From the text: fluorescence polarization competition assay (PolarScreen) on recombinant human VDR (hVDR, vitamin D receptor)

IC50: 28 nM
Compound: C=C1[C@H](O)C(C)=C(C#CC2=CCCc3c2cccc3[C@H](C)CCCC(C)(C)O)C[C@H]1O [compound 6, (1R,3S,1′′R)-5-[5′-(5′′-Hydroxy-1′′,5′′-dimethylhexyl)-3′,4′-dihydro-naphthalen-1′-ylethynyl]-4-methyl-2-methylene-cyclohex-4-ene-1,3-diol]
